Assay results: patent US20100322861A1, “ENGINEERED CELLS, IMAGING REPORT GENE/PROBE SYSTEMS, AND METHODS OF IMAGING” (priority 2007, published 2010)

How the values were obtained:
[1] = system: HSV1-tk expressing CTLs; assay: In vitro assays of Ganciclovir induced cell death of HSV1-tk expressing CTLs; assay type: cell-based, human; conditions: previous in vitro assays
[2] = in vivo, iv
Description: Two coronal slices are shown to illustrate activity within the liver, gall-bladder, intestines, kidneys and bladder, which are organs involved with [^18F]FHBG's clearance from the body.

[3] = system: cytolytic T cells expressing IL13 zetakine and HSV1-tk genes; assay: [18F]FHBG PET imaging of infused HSV1-tk expressing CTLs in a glioma patient; assay type: in vivo, human
Description: The CTLs were imaged with the PET reporter probe 9-[4-[^18F]Fluoro-3-(hydroxymethyl)butyl]guanine ([^18F]FHBG), because they constitutively express the PET reporter gene (PRG) HSV1-tk. (4) [^18F]FHBG is approved by the FDA as an investigational new drug (IND #61,880) for PET imaging at UCLA and Stanford University nuclear medicine clinics. UCLA's medical internal review board (M-IRB) has approved [^18F]FHBG PET imaging in normal volunteers, glioma patients and glioma patients who are enrolled in adoptive cellular gene therapy, when the infused cells express the PRG HSV1-tk. Stanford University's M-IRB has approved [^18F]FHBG PET imaging in glioma patients. COHNMC's M-IRB has approved referral of the patient's enrolled in the CTL therapy study for [^18F]FHBG PET imaging at UCLA.
254.62 MBq (6.88 mCi) [^18F]FHBG was injected through the other iv line (FDA limit 7 mCi). At approximately two-hours and fifteen minutes after [^18F]FHBG injection, the whole-body PET emission scan started from the patient's head to bottom, using an ECAT EXACT HR+PET scanner (CTI/Siemens, Inc., Knoxville, Tenn.). The whole-body scan consisted of 7 bed positions (7-minutes each). Three minute transmission scans followed each 7 minute emission scans. A two bed position head scan immediately followed completion of the whole-body scan. […] In addition, enhanced [^18F]FHBG accumulation was observed near the patient's corpus callosum. This indicates trafficking of infused CTLs to the remote corpus callosum tumor. The level of [^18F]FHBG accumulation is greater than what has been observed in control GBM patients who had tumor resections or intact tumors. Table 1 (FIG. 6) includes quantitative data of tumor to background ratios, comparing [^18F]FHBG accumulation levels of the CTL infused patient described in this example and control patients. Relative to similar controls, [^18F]FHBG accumulation is 2.6× higher in the patient's tumor resection site and 2.8× higher in the remote corpus callosum tumor site. […] Finally, a stereotactic biopsy of the left sided corpus callosum within a week of the [^18F]FHBG PET scan confirmed the presence of malignant disease infiltrated with CD8+ T cells.

[4] = system: HSV1-TK; assay: Cell culture uptake assay of [3H]Penciclovir into patient CTLs versus control Jurkat cells; assay type: cell-based, Herpes Simplex Virus 1; conditions: about 1 μCi/ml, control Jurkat cells not expressing HSV1-tk
Description: FIG. 5 is a bar graph that illustrates the uptake of [^3H]Penciclovir into the genetically engineered CTL clone that was infused into the patient and control Jurkat cells. The autologous patient CTLs were genetically engineered to constitutively express HSV1-tk. The control cells expressed Firefly luciferase instead of HSV1-tk. […] The symbol “*” indicates significant difference between uptake of [^3H]PCV into patient CTLs vs control cells at 4 hours (P<0.001).
The patient of the present example received a total of approximately 1×10^9 CTLs within a five-week period of direct infusions (one week break between weeks 2 and 4). It is both possible that these cells proliferate or some die once injected into the patient. The number of cells present within the tumor resection site and the intact tumor near the corpus callosum could not be specifically quantified. That would require a pharmacokinetic model ((2004) J Nucl Med 45, 1560-1570, which is incorporated herein by reference) for [^18F]FHBG at brain tumor sites and knowing HSV1-tk expression levels per CTL at imaging time. […] This low level of activity explains why [^18F]FHBG accumulation in CTL infusion sites and intact tumor is only 2-3× higher than background. In fact during uptake assay cultured cells were exposed to a relatively constant concentration of about 1 μCi/ml; whereas assuming homogeneous distribution of [^18F]FHBG in 6 liters of blood, the maximum concentration CTLs would have been exposed to within the first 1-2 minutes after injection would have been about 1 μCi/ml, but then there is a rapid decline in blood concentration of [^18F]FHBG within the first 20-40 minutes following it's injection. Despite that, [^18F]FHBG's ability to detect the CTLs may be due to the low background within the surrounding brain tissue and the presence of a large number of CTLs.

Question: For `Nc1nc(O)c2ncn(COC(CO)CO)c2n1` [Ganciclovir], which “Ganciclovir induced cell death of CTLs” value [1] is on record?
Answer: susceptibility to Ganciclovir induced cell death

Question: For `Nc1nc2c(ncn2CCC(CO)C[18F])c(=O)[nH]1` (stereo not drawn) [[^18F]FHBG, 9-[4-[^18F]fluoro-3-(hydroxymethyl)butyl]guanine], which “clearance from tissues not involved in its clearance” value ([2]; human) is on record?
Answer: clears very rapidly

Question: And the “time of rapid decline in blood concentration following injection” value [2]?
Answer: 20 to 40 min

Question: And the “tumor 2/meninges [18F]FHBG activity ratio” value ([3]; CTL infused patient, non-resected tumor near corpus callosum, images approximately two hours after injection)?
Answer: 1.57

Question: And the “tumor 1/meninges [18F]FHBG activity ratio” value ([3]; CTL infused patient, surgically resected tumor site, images approximately two hours after injection)?
Answer: 1.75

Question: What about the “[18F]FHBG accumulation versus background” value ([3]; CTL infusion sites and intact tumor) of the same compound?
Answer: 2-3 ×

Question: And the “average intact tumor site to meninges [18F]FHBG activity ratio” value ([3]; control patients (no CTLs))?
Answer: 0.44

Question: And the “average resected tumor site/meninges [18F]FHBG activity ratio” value ([3]; control patients (no CTLs))?
Answer: 0.86

Question: And the “[18F]FHBG accumulation relative to similar controls” value ([3]; patient's tumor resection site)?
Answer: 2.6 ×

Question: And the “[18F]FHBG accumulation relative to similar controls” value ([3]; remote corpus callosum tumor site)?
Answer: 2.8 ×

Question: And the “[18F]FHBG accumulation in the CTL infused patient versus control patients” value ([3]; resection site and intact tumor, quantitative analysis)?
Answer: greater than two times higher

Question: For [^3H]Penciclovir, which “[3H]PCV uptake into CTL clone relative to control cells” value ([4]; 1 h) is on record?
Answer: 2.7 ×

Question: What about the “[3H]PCV uptake into CTL clone relative to control cells” value ([4]; 1 h, listed as [^3H]PCV) of the same compound?
Answer: approximately 3 ×

Question: And the “[3H]PCV uptake into CTL clone relative to control cells” value ([4]; 4 h)?
Answer: 9.3 ×

Question: What about the “[3H]PCV uptake into CTL clone relative to control cells” value ([4]; 4 h, listed as [^3H]PCV) of the same compound?
Answer: ~9 ×
